# Source: patent US20100075907A1, “NEUROMEDIN U RECEPTOR AGONISTS AND USES THEREOF” (priority 2006, published 2010)
# Residues, ends and D or L forms follow the SMILES beside them. *: point of attachment. X1 = CC(C)CCC[C@@H](C)[C@H]1CC[C@H]2[C@@H]3CC=C4C[C@@H](OC(=O)C*)CC[C@]4(C)[C@H]3CC[C@]12C
# Tested on: diet-induced obese mice
# Assay: Feeding study in diet-induced obese mice (food intake, body weight)
# Format: in vivo
# Details: for % Food intake (FI) reductions Day 1: Day 1, based on vehicle responses
# Excerpt: NMUR1 knockout (Nmur1−/−) mice were generated using standard homologous recombination techniques. Nmur1 mice were subsequently transferred to Taconic Farms where they were either maintained on a 75% C57BL/6×25% 129S6/SvEv mixed genetic background or backcrossed six generations to C57BL/6. NMUR2 knockout (Nmur2−/−) mice were licensed from Deltagen Inc., San Mateo, Calif. and subsequently transferred to Taconic Farms where they were either maintained on a 75% C57BL/6×25% 129/OlaHsd mixed genetic background or backcrossed for seven generations to C57BL/6. NMUR1 and NMUR2 double knockout (Nmur1&2−/−) mice were generated by crossing N6 Nmur1−/− mice to N7 Nmur2−/− mice. Mice were individually housed in Tecniplast cages in a conventional SPF facility. Mice were initially maintained on a regular chow diet and then early in their life were switched to a high fat diet (D12492: 60% kcal from fat; Research Diets, Inc., New Brunswick, N.J.) with ad libitum access to water in a 12-hour light/12-hour dark cycle.
# Ad libitum fed male diet-induced obese mice were weighed and dosed either i.p. or s.c. about 30 minutes prior to the onset of the dark phase of the light cycle and provided with a preweighed aliquot of high fat diet D12492 which was then weighed 2 hours and 18 hours (day 1), 42 hours (day 2), 66 hours (day 3), and 90 hours (day 4) after the onset of the initial dark phase. Mice were weighed at the 18, 42, 66 and 90 hour time points.
Compound,extension of serum half-life by PEGylation,Body weight (BW) change (in grams) {relative to vehicle} Day 1 (10 mg/kg) [grams],% Food intake (FI) reductions Day 1 (10 mg/kg) [%],Body weight (BW) change (in grams) {relative to vehicle} Day 1 (3 mg/kg) [grams],% Food intake (FI) reductions Day 1 (3 mg/kg) [%],other results
CC(=O)N[C@@H](CSCC(=O)O[C@H]1CC[C@@]2(C)C(=CC[C@H]3[C@@H]4CC[C@H]([C@H](C)CCCC(C)C)[C@@]4(C)CC[C@@H]32)C1)C(=O)NCC(=O)N[C@@H](Cc1ccc(O)cc1)C(=O)N[C@@H](Cc1ccccc1)C(=O)N[C@@H](CC(C)C)C(=O)N[C@@H](Cc1ccccc1)C(=O)N[C@@H](CCCNC(=N)N)C(=O)N1CCC[C@H]1C(=O)N[C@@H](CCCNC(=N)N)C(=O)N[C@@H](CC(N)=O)C(N)=O [NMU11] (Ac-C(X1)GYFLFRPRN-NH2),two days,,,,,
Ac-C2FRVDEEFQSPFASQSRGYFLFRPRN-CONH2 [NMU9] ({Ac-C(PEG 40 kDa)}-FRVDEEFQSPFASQSRGYFLFRPRN-NH2) [C2 = Cys(PEG)240 kDa from Nektar (mPEG2-MAL-40 k)],three days,−2.0,56,,,"Body weight (BW) change (in grams) {relative to vehicle} Day 2 (10 mg/kg, Day 2): −1.2 grams; % Food intake (FI) reductions Day 2 (10 mg/kg, Day 2, based on vehicle responses): 57%; Body weight (BW) change (in grams) {relative to vehicle} Day 3 (10 mg/kg, Day 3): −0.2 grams; % Food intake (FI) reductions Day 3 (10 mg/kg, Day 3, based on vehicle responses): 18%"
Ac-FRVDEEFQSPFASQSRGYFLFRPRN-NH2 [NMU2],,,,−0.7,25,
Ac-FRVDEEFQSPFASQSRPYFLFRPRN-NH2 [NMU5],,,,−0.5,26,
"H-FRVDEEFQSPFASQSRGYFLFRPRN-NH2 [hNMU-25, reference compound]",,−0.6,21,,,
H-FRVDEEFQSPFASQSRPYFLFRPRN-NH2 [NMU4],,,,−0.3,12,
